Measured values as given in PMC4676015, “Variant fatty acid-like molecules Conjugation, novel approaches for extending the stability of therapeutic peptides” (Scientific Reports, 2015).

Molecular target: T1, GLP-1 receptor (GLP-1R) (Rattus norvegicus, UniProt P32301)
T1 construct: endogenous in cells; host or cells: rat INS-1 cells
T1 sequence (P32301 22-463): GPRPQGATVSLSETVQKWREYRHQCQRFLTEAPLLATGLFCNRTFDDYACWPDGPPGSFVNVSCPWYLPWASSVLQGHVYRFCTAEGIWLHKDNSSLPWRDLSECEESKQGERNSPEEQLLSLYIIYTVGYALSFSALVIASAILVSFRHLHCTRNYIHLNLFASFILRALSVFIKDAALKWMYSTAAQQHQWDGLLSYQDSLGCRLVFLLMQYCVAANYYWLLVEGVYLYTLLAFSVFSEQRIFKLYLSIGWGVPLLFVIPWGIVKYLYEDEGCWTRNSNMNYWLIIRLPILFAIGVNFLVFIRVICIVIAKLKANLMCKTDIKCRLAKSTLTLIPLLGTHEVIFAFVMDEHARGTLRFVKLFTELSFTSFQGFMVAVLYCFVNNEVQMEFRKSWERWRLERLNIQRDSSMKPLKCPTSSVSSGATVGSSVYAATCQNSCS
Assay: GLP-1 receptor binding assay (cellular ELISA)
Description: Cells were rinsed with PBS and fixed with 4% paraformaldehyde (Thermo Scientific) for 10 min at room temperature and quenched for 5 min with 2% glycine in PBS, pH 7.5. […] After a 2 h incubation at 37 °C in a final volume of 100 μl, the excess peptides were washed, and the cells were blocked with 5% BSA (BD Biosciences). […] Colorimetric changes were analyzed by reading the absorbance at 450 nm in a SpectraMax M5 (Molecular Device) microplate reader. The peptide concentration was plotted against UV absorbance, and the Kd was calculated using Origin 7.0 software.

Kd	Compound
39.9 ± 1.27 nM	CCCCCCCCCCCC(=O)NCCCC[C@H](NC(=O)[C@H](C)NC(=O)[C@H](C)NC(=O)[C@H](CCC(N)=O)NC(=O)CNC(=O)[C@H](CCC(=O)O)NC(=O)[C@H](CC(C)C)NC(=O)[C@H](Cc1ccc(O)cc1)NC(=O)[C@H](CO)NC(=O)[C@H](CO)NC(=O)[C@@H](NC(=O)[C@H](CC(=O)O)NC(=O)[C@H](CO)NC(=O)[C@@H](NC(=O)[C@H](Cc1ccccc1)NC(=O)[C@@H](NC(=O)CNC(=O)[C@H](CCC(=O)O)NC(=O)[C@H](C)NC(=O)[C@@H](N)Cc1c[nH]cn1)[C@@H](C)O)[C@@H](C)O)C(C)C)C(=O)N[C@@H](CCC(=O)O)C(=O)N[C@@H](Cc1ccccc1)C(=O)N[C@H](C(=O)N[C@@H](C)C(=O)N[C@@H](Cc1c[nH]c2ccccc12)C(=O)N[C@@H](CC(C)C)C(=O)N[C@H](C(=O)N[C@@H](CCCCN)C(=O)NCC(=O)N[C@@H](CCCNC(=N)N)C(=O)NCC(=O)O)C(C)C)[C@@H](C)CC [compound 2]
99.74 ± 0.92 nM	CCCCCCCCCCCCCCCCNC(=O)CC[C@H](NC(=O)[C@H](C)NC(=O)[C@@H](N)Cc1c[nH]cn1)C(=O)NCC(=O)N[C@H](C(=O)N[C@@H](Cc1ccccc1)C(=O)N[C@H](C(=O)N[C@@H](CO)C(=O)N[C@@H](CC(=O)O)C(=O)N[C@H](C(=O)N[C@@H](CO)C(=O)N[C@@H](CO)C(=O)N[C@@H](Cc1ccc(O)cc1)C(=O)N[C@@H](CC(C)C)C(=O)N[C@@H](CCC(=O)O)C(=O)NCC(=O)N[C@@H](CCC(N)=O)C(=O)N[C@@H](C)C(=O)N[C@@H](C)C(=O)N[C@@H](CCCCN)C(=O)N[C@@H](CCC(=O)O)C(=O)N[C@@H](Cc1ccccc1)C(=O)N[C@H](C(=O)N[C@@H](C)C(=O)N[C@@H](Cc1c[nH]c2ccccc12)C(=O)N[C@@H](CC(C)C)C(=O)N[C@H](C(=O)N[C@@H](CCCCN)C(=O)NCC(=O)N[C@@H](CCCNC(=N)N)C(=O)NCC(=O)O)C(C)C)[C@@H](C)CC)C(C)C)[C@@H](C)O)[C@@H](C)O [compound 9]
88.3 ± 3.27 nM	CCCCCCCCNC(=O)C[C@H](NC(=O)[C@H](CO)NC(=O)[C@@H](NC(=O)[C@H](Cc1ccccc1)NC(=O)[C@@H](NC(=O)CNC(=O)[C@H](CCC(=O)O)NC(=O)[C@H](C)NC(=O)[C@@H](N)Cc1c[nH]cn1)[C@@H](C)O)[C@@H](C)O)C(=O)N[C@H](C(=O)N[C@@H](CO)C(=O)N[C@@H](CO)C(=O)N[C@@H](Cc1ccc(O)cc1)C(=O)N[C@@H](CC(C)C)C(=O)N[C@@H](CCC(=O)O)C(=O)NCC(=O)N[C@@H](CCC(N)=O)C(=O)N[C@@H](C)C(=O)N[C@@H](C)C(=O)N[C@@H](CCCCN)C(=O)N[C@@H](CCC(=O)O)C(=O)N[C@@H](Cc1ccccc1)C(=O)N[C@H](C(=O)N[C@@H](C)C(=O)N[C@@H](Cc1c[nH]c2ccccc12)C(=O)N[C@@H](CC(C)C)C(=O)N[C@H](C(=O)N[C@@H](CCCCN)C(=O)NCC(=O)N[C@@H](CCCNC(=N)N)C(=O)NCC(=O)O)C(C)C)[C@@H](C)CC)C(C)C [compound 10]
18.7 ± 1.36 nM	CCCCCCCCNC(=O)CC[C@H](NC(=O)[C@H](CC(C)C)NC(=O)[C@H](Cc1ccc(O)cc1)NC(=O)[C@H](CO)NC(=O)[C@H](CO)NC(=O)[C@@H](NC(=O)[C@H](CC(=O)O)NC(=O)[C@H](CO)NC(=O)[C@@H](NC(=O)[C@H](Cc1ccccc1)NC(=O)[C@@H](NC(=O)CNC(=O)[C@H](CCC(=O)O)NC(=O)[C@H](C)NC(=O)[C@@H](N)Cc1c[nH]cn1)[C@@H](C)O)[C@@H](C)O)C(C)C)C(=O)NCC(=O)N[C@@H](CCC(N)=O)C(=O)N[C@@H](C)C(=O)N[C@@H](C)C(=O)N[C@@H](CCCCN)C(=O)N[C@@H](CCC(=O)O)C(=O)N[C@@H](Cc1ccccc1)C(=O)N[C@H](C(=O)N[C@@H](C)C(=O)N[C@@H](Cc1c[nH]c2ccccc12)C(=O)N[C@@H](CC(C)C)C(=O)N[C@H](C(=O)N[C@@H](CCCCN)C(=O)NCC(=O)N[C@@H](CCCNC(=N)N)C(=O)NCC(=O)O)C(C)C)[C@@H](C)CC [compound 13]
